Measurements taken from US9056874B2, “Complement pathway modulators and uses thereof” (NOVARTIS AG, priority 2012, dated 2015).

Target: factor B (Homo sapiens, UniProt P00751)
Experiment: factor B inhibition assay of Biological Example 1
Assay type: biochemical
Parameters: CVF-Bb complex prepared from purified cobra venom factor (1 μM), recombinant human complement factor B; made in house; host or cells: drosophila cells (factor B); E. coli (factor D used to form the complex)
Settings: IC50 (nM), assay of Biological Example 1 (Table 1)

factor B, sequence (P00751 260-764 limits assumed): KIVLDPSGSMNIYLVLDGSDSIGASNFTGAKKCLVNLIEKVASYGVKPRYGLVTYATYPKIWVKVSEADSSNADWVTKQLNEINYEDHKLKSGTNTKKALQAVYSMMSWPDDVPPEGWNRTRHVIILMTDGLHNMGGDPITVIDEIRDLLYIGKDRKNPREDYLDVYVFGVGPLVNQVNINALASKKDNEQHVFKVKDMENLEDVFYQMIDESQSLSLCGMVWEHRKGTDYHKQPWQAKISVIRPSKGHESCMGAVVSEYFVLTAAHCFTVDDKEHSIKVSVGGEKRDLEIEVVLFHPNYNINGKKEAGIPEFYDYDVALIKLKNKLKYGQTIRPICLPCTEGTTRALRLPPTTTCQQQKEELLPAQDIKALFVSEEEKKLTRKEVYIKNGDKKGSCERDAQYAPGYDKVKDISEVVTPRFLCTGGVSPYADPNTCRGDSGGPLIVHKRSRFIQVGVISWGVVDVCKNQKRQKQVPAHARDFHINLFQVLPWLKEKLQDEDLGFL
factor B, sequence (Q91132 23-649 partner limits assumed): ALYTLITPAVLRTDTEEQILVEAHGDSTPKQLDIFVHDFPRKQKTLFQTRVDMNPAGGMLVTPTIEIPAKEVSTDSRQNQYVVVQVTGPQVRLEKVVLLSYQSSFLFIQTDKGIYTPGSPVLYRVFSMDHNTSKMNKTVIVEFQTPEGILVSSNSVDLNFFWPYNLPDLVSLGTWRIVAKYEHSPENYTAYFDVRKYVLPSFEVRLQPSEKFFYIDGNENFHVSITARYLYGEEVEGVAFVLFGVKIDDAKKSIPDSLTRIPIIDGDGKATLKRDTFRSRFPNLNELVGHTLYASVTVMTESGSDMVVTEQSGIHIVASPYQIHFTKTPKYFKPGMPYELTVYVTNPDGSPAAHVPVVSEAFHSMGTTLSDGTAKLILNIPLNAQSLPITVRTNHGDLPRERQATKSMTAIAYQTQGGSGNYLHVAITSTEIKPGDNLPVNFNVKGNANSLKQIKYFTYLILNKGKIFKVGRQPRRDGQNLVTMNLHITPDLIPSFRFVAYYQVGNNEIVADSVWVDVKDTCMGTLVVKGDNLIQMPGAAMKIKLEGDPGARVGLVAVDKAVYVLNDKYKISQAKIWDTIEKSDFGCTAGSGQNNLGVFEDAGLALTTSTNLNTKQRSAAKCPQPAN
factor B, sequence (Q91132 733-984 partner limits assumed): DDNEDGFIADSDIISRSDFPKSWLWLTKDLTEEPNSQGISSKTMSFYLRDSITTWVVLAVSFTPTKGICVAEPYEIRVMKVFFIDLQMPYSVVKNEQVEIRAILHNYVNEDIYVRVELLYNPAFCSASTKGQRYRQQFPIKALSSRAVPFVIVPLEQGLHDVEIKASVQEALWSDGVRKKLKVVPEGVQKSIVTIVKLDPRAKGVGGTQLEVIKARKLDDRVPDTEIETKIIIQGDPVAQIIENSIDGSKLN
factor B, sequence (Q91132 1264-1642 partner limits assumed): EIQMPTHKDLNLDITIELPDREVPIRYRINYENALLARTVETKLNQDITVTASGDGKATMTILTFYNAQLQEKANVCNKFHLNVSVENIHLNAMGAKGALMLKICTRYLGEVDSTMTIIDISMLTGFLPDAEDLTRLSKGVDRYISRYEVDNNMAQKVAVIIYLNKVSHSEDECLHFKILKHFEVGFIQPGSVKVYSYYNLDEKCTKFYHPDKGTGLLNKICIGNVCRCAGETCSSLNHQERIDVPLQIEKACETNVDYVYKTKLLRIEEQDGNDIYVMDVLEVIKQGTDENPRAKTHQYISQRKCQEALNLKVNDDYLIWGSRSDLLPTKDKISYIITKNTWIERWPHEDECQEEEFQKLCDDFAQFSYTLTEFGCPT

Going from `CCc1cc(C)c2[nH]ccc2c1C(O)c1nc2cc(C#N)ccc2[nH]1` (single isomer, unassigned; (+)) [67-A b) (+), (+)-2-((5-ethyl-7-methyl-1H-indol-4-yl)(hydroxy)methyl)-1H-benzo[d]imidazole-5-carbonitrile] to `Cc1cc(CO)c(C(O)c2nc3cc(C#N)ccc3[nH]2)c2cc[nH]c12` (single isomer, unassigned; (+)) [65-D b) (+), (+)-2-(hydroxy(5-(hydroxymethyl)-7-methyl-1H-indol-4-yl)methyl)-1H-benzo[d]imidazole-5-carbonitrile], the IC50 rises from 1160 nM to 6200 nM (5.3-fold). The first is the more potent here.

Going from `Cc1cc(C(C)C)c(C(C)(O)c2nc3cc(C#N)ccc3[nH]2)c2cc[nH]c12` (single isomer, unassigned; (-)) [79-B b) (−), (−)-2-(1-hydroxy-1-(5-isopropyl-7-methyl-1H-indol-4-yl)ethyl)-1H-benzo[d]imidazole-5-carbonitrile] to `Cc1cc(CC(C)C)c(C(C)(O)c2nc3cc(C#N)ccc3[nH]2)c2cc[nH]c12` (single isomer, unassigned; (+)) [79-D b) (+), (+)-2-(1-hydroxy-1-(5-isobutyl-7-methyl-1H-indol-4-yl)ethyl)-1H-benzo[d]imidazole-5-carbonitrile], the IC50 rises from 260 nM to 2240 nM (8.6-fold).

First: Cc1cc(C)c2[nH]ccc2c1C(O)(c1ccccc1)c1nc2cc(C#N)ccc2[nH]1 (centres unmarked) [Example 79-I]
Second: Cc1cc(C)c2[nH]ccc2c1C(C)(N)c1nc2cc(C#N)ccc2[nH]1 (racemic) [101-E b) (+), (+)-2-(1-amino-1-(5,7-dimethyl-1H-indol-4-yl)ethyl)benzo[d]imidazole-5-carbonitrile]
The IC50 of the first is 8.2-fold higher: 660 nM for the first, 80 nM for the second. The second is the more potent here.

Going from `COc1cc(C)c2[nH]ccc2c1C(OC)(c1nc2cc(C#N)ccc2[nH]1)C(F)(F)F` (single isomer, unassigned; (-)) [34-B b) (−), (−)-2-(2,2,2-trifluoro-1-methoxy-1-(5-methoxy-7-methyl-1H-indol-4-yl)ethyl)-1H-benzo[d]imidazole-5-carbonitrile] to `COc1cc(C)c2[nH]ccc2c1C(O)(c1nc2cc(C#N)ccc2[nH]1)C(F)(F)F` (single isomer, unassigned; (+)) [33-B b) (+), (+)-2-(2,2,2-trifluoro-1-hydroxy-1-(5-methoxy-7-methyl-1H-indol-4-yl)ethyl)-1H-benzo[d]imidazole-5-carbonitrile], the IC50 rises from 10 nM to 430 nM (43-fold).

Compared with `CCc1cc(C)c2[nH]ccc2c1C(OC)c1nc2cc(C#N)ccc2[nH]1` (single isomer, unassigned; (+)) [70-D b) (+), (+)-2-((5-ethyl-7-methyl-1H-indol-4-yl)(methoxy)methyl)-1H-benzo[d]imidazole-5-carbonitrile], `COc1cc(C)c2[nH]ccc2c1C(O)c1nc2cc(C#N)ccc2[nH]1` (single isomer, unassigned; (-)) [24-B b) (−), (−)-2-(hydroxy(5-methoxy-7-methyl-1H-indol-4-yl)methyl)-1H-benzo[d]imidazole-5-carbonitrile] is 11-fold lower in IC50: 950 nM for the first, 90 nM for the second.

Compared with `CCc1cc(C)c2[nH]ccc2c1C(N)(c1nc2cc(C#N)ccc2[nH]1)C(F)(F)F` (single isomer, unassigned; (+)) [107-C b) (+)], `CCc1cc(C)c2[nH]ccc2c1C(C)(O)c1nc2cc(C#N)ccc2[nH]1` (single isomer, unassigned; (+)) [77-C b) (+), (+)-2-(1-(5-ethyl-7-methyl-1H-indol-4-yl)-1-hydroxyethyl)-1H-benzo[d]imidazole-5-carbonitrile] is 10-fold lower in IC50: 400 nM for the first, 40 nM for the second.

First: [2H]C([2H])([2H])Oc1cc(Cl)c2[nH]ccc2c1Cc1nc2cc(C#N)ccc2[nH]1 [Example 22, 2-((7-Chloro-5-(^2H3)methoxy-1H-indol-4-yl)methyl)-1H-benzo[d]imidazole-5-carbonitrile]
Second: Cc1cc(C)c2[nH]ccc2c1Cc1nc2cc(C#N)ccc2[nH]1 [Example 58-C, 2-((5,7-Dimethyl-1H-indol-4-yl)methyl)-1H-benzo[d]imidazole-5-carbonitrile]
The IC50 of the first is 5.7-fold higher: 1140 nM for the first, 200 nM for the second. The second is the more potent here.

Compared with `Cc1cc(C)c2[nH]cc3c2c1C(O)(c1nc2cc(C#N)ccc2[nH]1)CC3` (single isomer, unassigned) [93-F b) (tr = 10.2 min), (−) or (+)-2-(5-hydroxy-6,8-dimethyl-1,3,4,5-tetrahydrobenzo[cd]indol-5-yl)-1H-benzo[d]imidazole-5-carbonitrile], `CCc1cc(C)c2[nH]cc3c2c1C(O)(c1nc2cc(C#N)ccc2[nH]1)CC3` (single isomer, unassigned) [94 b) (tr = 4.5 min), (+) or (−)-2-(6-ethyl-5-hydroxy-8-methyl-1,3,4,5-tetrahydrobenzo[cd]indol-5-yl)-1H-benzo[d]imidazole-5-carbonitrile] is 2.4-fold lower in IC50: 950 nM for the first, 400 nM for the second.

Going from `CNC(C)(c1nc2cc(C#N)ccc2[nH]1)c1c(OC)cc(C)c2[nH]ccc12` (single isomer, unassigned; (-)) [42-D b) (−), (−)-2-(1-(5-methoxy-7-methyl-1H-indol-4-yl)-1-(methylamino)ethyl)-1H-benzo[d]imidazole-5-carbonitrile] to `COC(C)(c1nc2cc(C#N)ccc2[nH]1)c1c(C)cc(C)c2[nH]ccc12` (single isomer, unassigned; (-)) [84-B b) (−), (−)-2-(1-(5,7-dimethyl-1H-indol-4-yl)-1-methoxyethyl)-1H-benzo[d]imidazole-5-carbonitrile], the IC50 rises from 5 nM to 50 nM (10-fold).

Compared with `COc1cc(C)c2c(c1C(C)(OC)c1nc3cc(C#N)ccc3[nH]1)CCN2` (single isomer, unassigned; (+)) [124 b) (+), (+)-2-(1-methoxy-1-(5-methoxy-7-methylindolin-4-yl)ethyl)-1H-benzo[d]imidazole-5-carbonitrile], `[2H]C([2H])([2H])C(OC)(c1nc2cc(C#N)ccc2[nH]1)c1c(OC)cc(C)c2[nH]ccc12` (single isomer, unassigned; (-)) [27-E b) (−), (−)-2-((^2H3)methyl(methoxy)(5-methoxy-7-methyl-1H-indol-4-yl)methyl)-1H-benzo[d]imidazole-5-carbonitrile] is 120-fold lower in IC50: 490 nM for the first, 4 nM for the second. The second is the more potent here.

Going from `COC(C)(c1nc2cc(C#N)ccc2[nH]1)c1c(OC(C)C)cc(C)c2[nH]ccc12` (centres unmarked) [Example 27-C] to `COC(C)(c1nc2cc(C#N)ccc2[nH]1)c1c(C)cc(C)c2[nH]ccc12` (single isomer, unassigned; (+)) [84-B b) (+), (+)-2-(1-(5,7-dimethyl-1H-indol-4-yl)-1-methoxyethyl)-1H-benzo[d]imidazole-5-carbonitrile], the IC50 rises from 90 nM to 710 nM (7.9-fold). The first is the more potent here.

First: COc1cc(C)c2[nH]ccc2c1C(O)c1cc2ccc(C#N)cc2o1 (racemic) [Example 133-B, (±)-2-(hydroxy(5-methoxy-7-methyl-1H-indol-4-yl)methyl)benzofuran-6-carbonitrile]
Second: COc1cc(C)c2[nH]ccc2c1C(O)c1cc2cc(C#N)ccc2[nH]1 (racemic) [Example 136, (±)-2-(hydroxy(5-methoxy-7-methyl-1H-indol-4-yl)methyl)-1H-indole-5-carbonitrile]
The IC50 of the first is 5-fold higher: 100 nM for the first, 20 nM for the second. The second is the more potent here.

Going from `COc1cc(C)c2[nH]ccc2c1C(c1nc2cc(C#N)ccc2[nH]1)N(C)C` (racemic) [Example 43-C, (±)-2-((Dimethylamino)(5-methoxy-7-methyl-1H-indol-4-yl)methyl)-1H-benzo[d]imidazole-5-carbonitrile] to `Cc1cc(C(C)C)c(C(N)c2nc3cc(C#N)ccc3[nH]2)c2cc[nH]c12` (single isomer, unassigned) [97 b) (tr = 10.5 min), (+) or (−)-2-(amino(5-isopropyl-7-methyl-1H-indol-4-yl)methyl)-1H-benzo[d]imidazole-5-carbonitrile], the IC50 rises from 1180 nM to 3810 nM (3.2-fold).

Going from `Cc1cc(OCC2CC2)c(C(C)(O)c2nc3cc(C#N)ccc3[nH]2)c2cc[nH]c12` (single isomer, unassigned; (+)) [26-G b) (+), (+)-2-(1-(5-(cyclopropylmethoxy)-7-methyl-1H-indol-4-yl)-1-hydroxyethyl)-1H-benzo[d]imidazole-5-carbonitrile] to `CCOc1cc(C)c2[nH]ccc2c1C(C)(O)c1nc2cc(C#N)ccc2[nH]1` (single isomer, unassigned; (-)) [26-D b) (−), (−)-2-(1-(5-ethoxy-7-methyl-1H-indol-4-yl)-1-hydroxyethyl)-1H-benzo[d]imidazole-5-carbonitrile], the IC50 falls from 4950 nM to 440 nM (11-fold). The second is the more potent here.

Compared with `CCc1cc(C)c2[nH]cc(-c3ccccc3)c2c1C(O)c1nc2cc(C#N)ccc2[nH]1` (racemic) [Example 117-F, (±)-2-((5-Ethyl-7-methyl-3-phenyl-1H-indol-4-yl)(hydroxy)methyl)-1H-benzo[d]imidazole-5-carbonitrile], `CCc1cc(C)c2[nH]cc(-c3ccn[nH]3)c2c1Cc1nc2cc(C#N)ccc2[nH]1` [Example 116-F, 2-((5-Ethyl-7-methyl-3-(1H-pyrazol-5-yl)-1H-indol-4-yl)methyl)-1H-benzo[d]imidazole-5-carbonitrile] is 2.7-fold higher in IC50: 70 nM for the first, 190 nM for the second. The first is the more potent here.

First: Cc1cc(C)c2[nH]ccc2c1Cc1nc2cc(C#N)cc(C)c2[nH]1 [Example 63-F]
Second: Cc1cc(C2CC2)c(C(C)(N)c2nc3cc(C#N)ccc3[nH]2)c2cc[nH]c12 (single isomer, unassigned; (-)) [102-D b) (−), (−)-2-(1-amino-1-(5-cyclopropyl-7-methyl-1H-indol-4-yl)ethyl)-1H-benzo[d]imidazole-5-carbonitrile]
The IC50 of the first is higher: > 100000 nM for the first, 8 nM for the second. The second is the more potent here.

Going from `COc1cc(C)c2[nH]ccc2c1C(C)(N)c1nc2cc(C#N)ccc2o1` (single isomer, unassigned; (-)) [131-B b) (−), (−)-2-(1-amino-1-(5-methoxy-7-methyl-1H-indol-4-yl)ethyl)benzo[d]oxazole-5-carbonitrile] to `Cc1cc(C2CC2)c(C(O)c2nc3cc(C#N)c(F)cc3[nH]2)c2cc[nH]c12` (centres unmarked) [Example 67-H], the IC50 rises from 52 nM to 1930 nM (37-fold).

Same assay, conditions: assay of Biological Example 1 (Table 1), read-out: IC50

In the case of “(+) or (−)-2-(1-methoxy-1-(7-methyl-5-(methylsulfonyl)-1H-indol-4-yl)ethyl)-1H-benzo[d]imidazole-5-carbonitrile [12-B b) (tr = 3.5 min)]”, the IC50 is reported as 13800 nM.
